≈ marks a conversion by molar mass, not a printed value.
How the values were obtained:
Hepatitis C virus [1] = assay: Antiviral activity against HCV genotype 1a H77 infected in human HuH7 replicon cells after 3 days in absence of human plasma by luciferase reporter gene assay; type: functional, organism-based, Hepacivirus hominis; details: genotype 1a H77, Huh-7, 72 h
Hepatitis C virus [2] = assay: Antiviral activity against HCV genotype 1a H77 infected in human HuH7 replicon cells after 3 days in presence of 40% human plasma by luciferase reporter gene assay; type: functional, organism-based, Hepacivirus hominis; details: genotype 1a H77, Huh-7, 72 h
Hepatitis C virus [3] = assay: Antiviral activity against HCV genotype 1b Con1 infected in human HuH7 replicon cells after 3 days in absence of human plasma by luciferase reporter gene assay; type: functional, organism-based, Hepacivirus hominis; details: isolate Con1, Huh-7, 72 h
Hepatitis C virus [4] = assay: Antiviral activity against HCV genotype 1b Con1 infected in human HuH7 replicon cells after 3 days in presence of 40% human plasma by luciferase reporter gene assay; type: functional, organism-based, Hepacivirus hominis; details: isolate Con1, Huh-7, 72 h
Hepatitis C virus [5] = assay: Antiviral activity against HCV genotype 1a H77 harboring NS3 R155K mutant infected in human HuH7 replicon cells after 3 days by luciferase reporter gene assay; type: functional, organism-based, Hepacivirus hominis; details: genotype 1a H77, Huh-7, 72 h
Hepatitis C virus [6] = assay: Antiviral activity against HCV genotype 1a H77 harboring NS3 D168V mutant infected in human HuH7 replicon cells after 3 days by luciferase reporter gene assay; type: functional, organism-based, Hepacivirus hominis; details: genotype 1a H77, Huh-7, 72 h
Hepatitis C virus [7] = assay: Antiviral activity against HCV genotype 1b Con1 harboring NS3 R155K mutant infected in human HuH7 replicon cells after 3 days by luciferase reporter gene assay; type: functional, organism-based, Hepacivirus hominis; details: isolate Con1, Huh-7, 72 h
Hepatitis C virus [8] = assay: Antiviral activity against HCV genotype 1b Con1 harboring NS3 D168V mutant infected in human HuH7 replicon cells after 3 days by luciferase reporter gene assay; type: functional, organism-based, Hepacivirus hominis; details: isolate Con1, Huh-7, 72 h
Hepatitis C virus [9] = assay: Resistance index, ratio of EC50 for HCV genotype 1a H77 harboring NS3 R155K mutant infected in human HuH7 replicon cells to EC50 for HCV genotype 1a H77 harboring wild type NS3 infected in human HuH7 replicon cells; type: functional, Hepacivirus hominis
Hepatitis C virus [10] = assay: Resistance index, ratio of EC50 for HCV genotype 1a H77 harboring NS3 D168V mutant infected in human HuH7 replicon cells to EC50 for HCV genotype 1a H77 harboring wild type NS3 infected in human HuH7 replicon cells; type: functional, Hepacivirus hominis
Hepatitis C virus [11] = assay: Resistance index, ratio of EC50 for HCV genotype 1b Con1 harboring NS3 R155K mutant infected in human HuH7 replicon cells to EC50 for HCV genotype 1b Con1 harboring wild type NS3 infected in human HuH7 replicon cells; type: functional, Hepacivirus hominis, isolate Con1
Hepatitis C virus [12] = assay: Resistance index, ratio of EC50 for HCV genotype 1b Con1 harboring NS3 D168V mutant infected in human HuH7 replicon cells to EC50 for HCV genotype 1b Con1 harboring wild type NS3 infected in human HuH7 replicon cells; type: functional, Hepacivirus hominis, isolate Con1
[13] = Half life in iv dosed rat by LC-MS/MS analysis; type: ADME, organism-based; details: in vivo
[14] = Plasma clearance in iv dosed rat by LC-MS/MS analysis; type: ADME, organism-based
[15] = Half life in po dosed rat by LC-MS/MS analysis; type: ADME, organism-based; details: in vivo
Rattus norvegicus = assay: Dose normalized AUC in po dosed rat after 24 hrs by LC-MS/MS analysis; type: ADME, organism-based; details: in vivo
[16] = Oral bioavailability in rat by LC-MS/MS analysis; type: ADME, organism-based; details: in vivo
[17] = Half life in dog at 1 mg/kg, iv by LC-MS/MS analysis; type: ADME, organism-based, Canis lupus familiaris; details: in vivo
[18] = Plasma clearance in dog at 1 mg/kg, iv by LC-MS/MS analysis; type: ADME, organism-based, Canis lupus familiaris
[19] = Half life in dog at 3 mg/kg, po by LC-MS/MS analysis; type: ADME, organism-based, Canis lupus familiaris; details: in vivo
Canis familiaris [20] = assay: Dose normalized AUC in dog at 3 mg/kg, po after 24 hrs by LC-MS/MS analysis; type: ADME, organism-based, Canis lupus familiaris; details: in vivo
Canis familiaris [21] = assay: (§1) Oral bioavailability in dog at 3 mg/kg by LC-MS/MS analysis; type: ADME, organism-based, Canis lupus familiaris; details: in vivo
Canis familiaris [22] = assay: Fraction of drug absorbed into portal vein in dog at 3 mg/kg, po by LC-MS/MS analysis; type: ADME, organism-based, Canis lupus familiaris; details: in vivo
Hepatitis C virus [23] = assay: Ratio of EC50 in presence of 40% human plasma to EC50 in absence of human plasma for HCV genotype 1a H77 infected in human HuH7 replicon cells; type: functional, Hepacivirus hominis
[24] = Solubility in pH 7.2 buffer; type: physicochemical
[25] = Apparent permeability of the compound in human Caco2 cells; type: ADME, cell-based; details: Caco-2
[26] = as §1; type: ADME, organism-based, Canis lupus familiaris; details: in vivo
[27] = Apparent permeability of the compound by PAMPA; type: ADME
RS4-11 = assay: Antiproliferative activity against human RS4:11 cells in presence of 10% human serum; type: functional, cell-based
MOLT-4 = assay: Antiproliferative activity against human MOLT4 cells in presence of 10% human serum; type: functional, cell-based

Row | SMILES | EC50 (Hepatitis C virus [1]) [nM] | EC50 (Hepatitis C virus [2]) [nM] | EC50 (Hepatitis C virus [3]) [nM] | EC50 (Hepatitis C virus [4]) [nM] | EC50 (Hepatitis C virus [5]) [nM] | EC50 (Hepatitis C virus [6]) [nM] | EC50 (Hepatitis C virus [7]) [nM] | EC50 (Hepatitis C virus [8]) [nM] | Ratio EC50 (Hepatitis C virus [9]) | Ratio EC50 (Hepatitis C virus [10]) | Ratio EC50 (Hepatitis C virus [11]) | Ratio EC50 (Hepatitis C virus [12]) | half-life [13] [h] | clearance [14] [mL/min/kg] | AUC/dose (Rattus norvegicus) [µg·h/mL] | half-life [17] [h] | clearance [18] [mL/min/kg] | AUC/dose (Canis familiaris [20]) [µg·h/mL] | Ratio EC50 (Hepatitis C virus [23]) | Solubility [24] [µM] | also measured
1 | Cc1cc(C(=O)N[C@H]2CCCCC/C=C\[C@@H]3C[C@@]3(C(=O)NS(=O)(=O)C3CC3)NC(=O)[C@@H]3C[C@@H](Oc4nc5ccccc5nc4C(F)(F)F)CN3C2=O)no1 | 0.5 | 12 | 0.4 | 10 | 0.4 | 33 | 0.7 | 2 | 4 | 290 | 2 | 6 | 1.2 | 3.5 | 4.75 | 1 | 5.67 | 6.76 | 6 - 35 | 150 (≈ 116 µg/mL) | half-life [15]: 1.8 h; bioavailability [16]: 99.5%; half-life [19]: 1.5 h; F (Canis familiaris [21]): 200%; FaFg (Canis familiaris [22]): 1.5; Papp [25]: 5.4 ×10⁻⁶ cm/s
2 | Cc1cc(C(=O)N[C@H]2CCCCC/C=C\[C@@H]3C[C@@]3(C(=O)NS(=O)(=O)C3CC3)NC(=O)[C@@H]3C[C@@H](Oc4nc5ccccc5nc4C)CN3C2=O)no1 | 1.4 | 30 | 0.4 | 9 | 3 | 94 | 2 | 5 | 6 | 177 | 2 | 2 | 2.4 | 78.3 | 0.008 | 1.4 | 7.83 | 0.3 | 6 - 35 | > 500 | bioavailability [16]: 3.9%; bioavailability [26]: 13%; FaFg (Canis familiaris [22]): 0.2; Papp [27]: 3.5 ×10⁻⁶ cm/s
3 | Cc1cc(C(=O)N[C@H]2CCCCC/C=C\[C@@H]3C[C@@]3(C(=O)NS(=O)(=O)C3CC3)NC(=O)[C@@H]3C[C@@H](Oc4nc5cc(F)ccc5nc4C)CN3C2=O)no1 | 1.1 | 11 | 0.8 | 7 | 2 | 41 | 1.6 | 3 | 7 | 146 | 2 | 4 | – | – | – | 2 | 1.17 | 18 | 6 - 35 | > 500 | half-life [19]: 2 h; bioavailability [26]: 123%; Papp [25]: 2.8 ×10⁻⁶ cm/s
4 | CN(C)CC[C@H](CSc1ccccc1)Nc1ccc(S(=O)(=O)NC(=O)c2ccc(N3CCN(Cc4ccccc4-c4ccc(Cl)cc4)CC3)cc2)cc1[N+](=O)[O-] [ABT 737] | – | – | – | – | – | – | – | – | – | – | – | – | – | – | – | – | – | – | – | – | EC50 (RS4-11): 24 nM; EC50 (MOLT-4): 622 nM
5 | CC1(C)CCC(CN2CCN(c3ccc(C(=O)NS(=O)(=O)c4ccc(NCC5CCOCC5)c([N+](=O)[O-])c4)c(Oc4cnc5[nH]ccc5c4)c3)CC2)=C(c2ccc(Cl)cc2)C1 [VENETOCLAX] | – | – | – | – | – | – | – | – | – | – | – | – | – | – | – | – | – | – | – | – | EC50 (RS4-11): 8 nM; EC50 (MOLT-4): > 5000 nM
